Test results: PubChem BioAssay AID1259407 (Chemical Carcinogenesis Research Information System (CCRIS), 2018)
Calls of active or inactive are those of the source. No rule for the calls is given here.

Test system: CCRIS mutagenicity, Ames/micronucleus/aberration tests
Assay: CCRIS mutagenicity studies
[1] = Test System: AMES SALMONELLA TYPHIMURIUM, Strain/Indicator: TA98, Metabolic Activation: NONE, Method: STANDARD PLATE
[2] = Test System: AMES SALMONELLA TYPHIMURIUM, Strain/Indicator: TA100, Metabolic Activation: NONE, Method: STANDARD PLATE

Measured: mutagenic call

CC(C)C(C)C
inactive: Test System: AMES SALMONELLA TYPHIMURIUM, Strain/Indicator: TA97, Metabolic Activation: HAMSTER, LIVER, S-9, AROCLOR 1254 (10 OR 30%), Method: PREINCUBATION inactive; negative | Test System: AMES SALMONELLA TYPHIMURIUM, Strain/Indicator: TA97, Metabolic Activation: NONE, Method: PREINCUBATION inactive; negative | Test System: AMES SALMONELLA TYPHIMURIUM, Strain/Indicator: TA97, Metabolic Activation: RAT, LIVER, S-9, AROCLOR 1254 (10 OR 30%), Method: PREINCUBATION inactive; negative | Test System: AMES SALMONELLA TYPHIMURIUM, Strain/Indicator: TA98, Metabolic Activation: HAMSTER, LIVER, S-9, AROCLOR 1254 (10%), Method: PREINCUBATION inactive; negative | Test System: AMES SALMONELLA TYPHIMURIUM, Strain/Indicator: TA98, Metabolic Activation: HAMSTER, LIVER, S-9, AROCLOR 1254 (30%), Method: DESICCATOR inactive; negative | Test System: AMES SALMONELLA TYPHIMURIUM, Strain/Indicator: TA98, Metabolic Activation: HAMSTER, LIVER, S-9, AROCLOR 1254 (30%), Method: PREINCUBATION inactive; negative | Test System: AMES SALMONELLA TYPHIMURIUM, Strain/Indicator: TA98, Metabolic Activation: NONE, Method: DESICCATOR inactive; negative | Test System: AMES SALMONELLA TYPHIMURIUM, Strain/Indicator: TA98, Metabolic Activation: NONE, Method: PREINCUBATION inactive; negative | Test System: AMES SALMONELLA TYPHIMURIUM, Strain/Indicator: TA98, Metabolic Activation: RAT, LIVER, S-9, AROCLOR 1254 (10%), Method: PREINCUBATION inactive; negative | Test System: AMES SALMONELLA TYPHIMURIUM, Strain/Indicator: TA98, Metabolic Activation: RAT, LIVER, S-9, AROCLOR 1254 (30%), Method: DESICCATOR inactive; negative | Test System: AMES SALMONELLA TYPHIMURIUM, Strain/Indicator: TA98, Metabolic Activation: RAT, LIVER, S-9, AROCLOR 1254 (30%), Method: PREINCUBATION inactive; negative | Test System: AMES SALMONELLA TYPHIMURIUM, Strain/Indicator: TA100, Metabolic Activation: HAMSTER, LIVER, S-9, AROCLOR 1254 (10%), Method: PREINCUBATION inactive; negative | Test System: AMES SALMONELLA TYPHIMURIUM, Strain/Indicator: TA100, Metabolic Activation: HAMSTER, LIVER, S-9, AROCLOR 1254 (30%), Method: DESICCATOR inactive; negative | Test System: AMES SALMONELLA TYPHIMURIUM, Strain/Indicator: TA100, Metabolic Activation: HAMSTER, LIVER, S-9, AROCLOR 1254 (30%), Method: PREINCUBATION inactive; negative | Test System: AMES SALMONELLA TYPHIMURIUM, Strain/Indicator: TA100, Metabolic Activation: NONE, Method: DESICCATOR inactive; negative | Test System: AMES SALMONELLA TYPHIMURIUM, Strain/Indicator: TA100, Metabolic Activation: NONE, Method: PREINCUBATION inactive; negative | Test System: AMES SALMONELLA TYPHIMURIUM, Strain/Indicator: TA100, Metabolic Activation: RAT, LIVER, S-9, AROCLOR 1254 (10%), Method: PREINCUBATION inactive; negative | Test System: AMES SALMONELLA TYPHIMURIUM, Strain/Indicator: TA100, Metabolic Activation: RAT, LIVER, S-9, AROCLOR 1254 (30%), Method: DESICCATOR inactive; negative | Test System: AMES SALMONELLA TYPHIMURIUM, Strain/Indicator: TA100, Metabolic Activation: RAT, LIVER, S-9, AROCLOR 1254 (30%), Method: PREINCUBATION inactive; negative | Test System: AMES SALMONELLA TYPHIMURIUM, Strain/Indicator: TA1535, Metabolic Activation: HAMSTER, LIVER, S-9, AROCLOR 1254 (10 OR 30%), Method: PREINCUBATION inactive; negative | Test System: AMES SALMONELLA TYPHIMURIUM, Strain/Indicator: TA1535, Metabolic Activation: NONE, Method: PREINCUBATION inactive; negative | Test System: AMES SALMONELLA TYPHIMURIUM, Strain/Indicator: TA1535, Metabolic Activation: RAT, LIVER, S-9, AROCLOR 1254 (10 OR 30%), Method: PREINCUBATION inactive; negative

[O-][N+](=Nc1ccc(Cl)c(Cl)c1)c1ccc(Cl)c(Cl)c1
inactive: Test System: AMES SALMONELLA TYPHIMURIUM, Strain/Indicator: TA97, Metabolic Activation: NONE, Method: STANDARD PLATE inactive; negative | Test System: AMES SALMONELLA TYPHIMURIUM, Strain/Indicator: TA97, Metabolic Activation: RAT, LIVER, S-9, AROCLOR 1254, Method: STANDARD PLATE inactive; negative | [1] inactive; negative | Test System: AMES SALMONELLA TYPHIMURIUM, Strain/Indicator: TA98, Metabolic Activation: RAT, LIVER, S-9, AROCLOR 1254, Method: STANDARD PLATE inactive; negative | [2] inactive; negative | Test System: AMES SALMONELLA TYPHIMURIUM, Strain/Indicator: TA100, Metabolic Activation: RAT, LIVER, S-9, AROCLOR 1254, Method: STANDARD PLATE inactive; negative | Test System: AMES SALMONELLA TYPHIMURIUM, Strain/Indicator: TA104, Metabolic Activation: NONE, Method: STANDARD PLATE inactive; negative | Test System: AMES SALMONELLA TYPHIMURIUM, Strain/Indicator: TA104, Metabolic Activation: RAT, LIVER, S-9, AROCLOR 1254, Method: STANDARD PLATE inactive; negative | Test System: CHINESE HAMSTER OVARY, Strain/Indicator: CHO-K1-BH4 (HGPRT), Metabolic Activation: NONE inactive; negative | Test System: CHINESE HAMSTER OVARY, Strain/Indicator: CHO-K1-BH4 (HGPRT), Metabolic Activation: RAT, LIVER, S-9, AROCLOR 1254 inactive; negative

N#CCCC(Br)(C#N)CBr (configuration not stated)
inactive: End Point: In vivo micronucleus, Test System: Peripheral blood normochromatic erythrocytes, Species: Mouse, Strain/Sex: B6C3F1/Female, Route: Dermal inactive; negative | End Point: In vivo micronucleus, Test System: Peripheral blood normochromatic erythrocytes, Species: Mouse, Strain/Sex: B6C3F1/Male, Route: Dermal inactive; negative | Test System: Ames Salmonella typhimurium, Strain/Indicator: TA97, Metabolic Activation: Hamster, Liver, S-9, Aroclor 1254 (10 and 30%), Method: Preincubation inactive; negative | Test System: Ames Salmonella typhimurium, Strain/Indicator: TA97, Metabolic Activation: None, Method: Preincubation inactive; negative | Test System: Ames Salmonella typhimurium, Strain/Indicator: TA97, Metabolic Activation: Rat, Liver, S-9, Aroclor 1254 (10 and 30%), Method: Preincubation inactive; negative | Test System: Ames Salmonella typhimurium, Strain/Indicator: TA98, Metabolic Activation: Hamster, Liver, S-9, Aroclor 1254 (10 and 30%), Method: Preincubation inactive; negative | Test System: Ames Salmonella typhimurium, Strain/Indicator: TA98, Metabolic Activation: None, Method: Preincubation inactive; negative | Test System: Ames Salmonella typhimurium, Strain/Indicator: TA98, Metabolic Activation: Rat, Liver, S-9, Aroclor 1254 (10 and 30%), Method: Preincubation inactive; negative | Test System: Ames Salmonella typhimurium, Strain/Indicator: TA100, Metabolic Activation: Hamster, Liver, S-9, Aroclor 1254 (10 and 30%), Method: Preincubation inactive; negative | Test System: Ames Salmonella typhimurium, Strain/Indicator: TA100, Metabolic Activation: None, Method: Preincubation inactive; negative | Test System: Ames Salmonella typhimurium, Strain/Indicator: TA100, Metabolic Activation: Rat, Liver, S-9, Aroclor 1254 (10 and 30%), Method: Preincubation inactive; negative | Test System: Ames Salmonella typhimurium, Strain/Indicator: TA1535, Metabolic Activation: Hamster, Liver, S-9, Aroclor 1254 (10 and 30%), Method: Preincubation inactive; negative | Test System: Ames Salmonella typhimurium, Strain/Indicator: TA1535, Metabolic Activation: None, Method: Preincubation inactive; negative | Test System: Ames Salmonella typhimurium, Strain/Indicator: TA1535, Metabolic Activation: Rat, Liver, S-9, Aroclor 1254 (10 and 30%), Method: Preincubation inactive; negative | Test System: E. coli, Strain/Indicator: WP2 uvrA/pKM101, Metabolic Activation: None, Method: Preincubation inactive; negative | Test System: E. coli, Strain/Indicator: WP2 uvrA/pKM101, Metabolic Activation: Rat, Liver, S-9, Aroclor 1254 (10%), Method: Preincubation inactive; negative

NC(=O)Oc1ccccc1
inactive: Test System: E. COLI, Strain/Indicator: WP2 UVRA, Metabolic Activation: NONE, Method: FLUCTUATION TEST inactive; negative

CN1CCN(c2ccc3nc(-c4ccc5nc(-c6ccc(N(CCCl)CCCl)cc6)[nH]c5c4)[nH]c3c2)CC1
inactive: [1] inactive; negative | [2] inactive; negative | Test System: AMES SALMONELLA TYPHIMURIUM, Strain/Indicator: TA102, Metabolic Activation: NONE, Method: STANDARD PLATE inactive; negative
